Data on one compound can be found in US20230236169A1, “NANOPLASMONIC BIOSENSOR FOR DETECTING AUTOPHAGY MARKER WITH HIGH SENSITIVITY, AND METHOD OF DETECTING AUTOPHAGY MARKER AND METHOD OF SCREENING DRUG CANDIDATE USING SAME” (KOREA UNIVERSITY RESEARCH AND BUSINESS FOUNDATION, priority 2021, published 2023).

What all share (format): cell-based, human
Test [1] has as its system BT-474. In words: Cell viability (EZ-Cytox). The conditions noted are these: Baf A 50 nM or Tz 20 μg mL^−1; 6, 24 and 48 hours. How it is done: (§1) Each cell line was preincubated in 96 wells at 5×10^4 cells per well in a CO2 incubator (37° C., 5% CO2, 2-24 hours). […] Each well was treated with 10 μL of EZ-Cytox (DoGen Bio, Korea), followed by further incubation for at least 1 hour. Thereafter, UV-vis absorbance at 450 nm was recorded.

For test [2], the system named is MDA-MB-231. Briefly: Cell viability (EZ-Cytox). The following applies: Baf A 50 nM or Tz 20 μg mL^−1; 6, 24 and 48 hours. How it is done:
as §1

For test [3], the system named is BT-474. In words: LC3 nanoplasmonic biosensor analysis of cell lysates of BT-474 cells. The conditions noted are these: 12 hours. How it is done: (§2) Each cell line was cultured in a 10-cm dish under appropriate conditions before cell lysate preparation. […] Caov-3 cells were treated with bafilomycin A1 (1 μM) and allowed to starve for 24 to 48 hours before adding a cytosolic LC3 removal reagent. […] Pellet cells were then washed with ice-cold PBS and incubated for 15 minutes with RIPA lysis buffer and inhibitors (Halt™ Protease and Phosphatase Inhibitor Cocktail). Thereafter, sonication and centrifugation were repeated to afford a cell lysate at a final concentration of 1.6×10^6 cells/mL.
Cleanly washed microscope coverslip slides were pretreated with 10% (v/v) APTES for 1 hour, and then drop-coated with 10 μL of a diluted immuno-AuNR solution (OD: about 0.05). A closed water-bath microfluidic detection chamber including two coverslip slides with a gasket interposed therebetween was assembled and securely fixed for sample incubation and biosensing (FIG. 1). The detection chamber was then mounted on an automated dark-field microscope stage and a syringe pump was connected to the inlet of the detection chamber. Unbound immunogold on the surface of the coverslip slides was removed using ultrapure water at a flow rate of 100 μL min^−1 for 1 hour, followed by treatment with 1 mL of a 0.2 M ethanolamine solution for 30 minutes to inactivate unreacted functional groups. […]
The LSPR wavelength of each immunogold was recorded three times throughout the experiment: 1) before LC3 sample injection, 2) after LC3 sample incubation, and 3) after PEBP1 treatment. The LSPR wavelength of each AuNR stabilized on the bottom coverslip slide was rapidly recorded with an imaging microscope system (SERA, NOST, Seoul, Korea). […] The LSPR mapping results associated with the dark-field images were visualized on a monitor with RAON computer software (NOST, Seoul, Korea), and the plasmon shift (Δλmax) of each LSPR wavelength was calculated using OriginPro 9 software.

Test [4] has as its system MDA-MB-231. Briefly: LC3 nanoplasmonic biosensor analysis of cell lysates of MDA-MB-231 cells. The following applies: 12 hours.
The subject of test [5] is Caov-3 cell line. Briefly: LC3 Western blotting and LC3 ELISA of Caov-3 cell lysates. The conditions noted are these: Baf A for 20 minutes and 24 hours, FIG. 14. How it is done:
as §2
The cell lysate prepared in Experimental Example 2 was quantified with a BCA assay kit (Thermo Fisher Scientific), and 40 μg thereof was loaded into each well. SDS-PAGE was conducted under conditions of 70 minutes or more, 15% gel, and 90 V. Primary (LC3B antibody, Cell Signaling) and secondary (goat anti-mouse, GenDEPOT) antibodies to LC3 were diluted 1:1000 and 1:5000, respectively, and respective antibodies to actin (anti beta-actin, AbFrontier) were also diluted 1:1000 and 1:10000. Other specific conditions were the same as the general protocol for Western blotting.
On the technique in general: A western blot detects proteins with antibodies after separation by electrophoresis.

In test [6] the test system is Caov-3 cell line. In words: LC3 nanoplasmonic biosensor analysis of cell lysates of Caov-3 cells. How it is done: Each cell line was cultured in a 10-cm dish under appropriate conditions before cell lysate preparation. […] […] […] Pellet cells were then washed with ice-cold PBS and incubated for 15 minutes with RIPA lysis buffer and inhibitors (Halt™ Protease and Phosphatase Inhibitor Cocktail). Thereafter, sonication and centrifugation were repeated to afford a cell lysate at a final concentration of 1.6×10^6 cells/mL.
Cleanly washed microscope coverslip slides were pretreated with 10% (v/v) APTES for 1 hour, and then drop-coated with 10 μL of a diluted immuno-AuNR solution (OD: about 0.05). A closed water-bath microfluidic detection chamber including two coverslip slides with a gasket interposed therebetween was assembled and securely fixed for sample incubation and biosensing (FIG. 1). The detection chamber was then mounted on an automated dark-field microscope stage and a syringe pump was connected to the inlet of the detection chamber. Unbound immunogold on the surface of the coverslip slides was removed using ultrapure water at a flow rate of 100 μL min^−1 for 1 hour, followed by treatment with 1 mL of a 0.2 M ethanolamine solution for 30 minutes to inactivate unreacted functional groups. Thereafter, at least 10 μL of LC3 sample and PEBP1 (2 μg mL^−1) were injected into the chamber and incubated for 4 hours and 30 minutes, respectively, and contaminants were washed with ultrapure water before biosensing.
The LSPR wavelength of each immunogold was recorded three times throughout the experiment: 1) before LC3 sample injection, 2) after LC3 sample incubation, and 3) after PEBP1 treatment. The LSPR wavelength of each AuNR stabilized on the bottom coverslip slide was rapidly recorded with an imaging microscope system (SERA, NOST, Seoul, Korea). An automated surface scanning and imaging module with a high-resolution EMCCD detector (888, iXon Life, Oxford Instrument, Belfast, Northern Ireland) was connected to large-area (130×130 μm) computer-assisted high-speed LSPR mapping through a single click. The LSPR mapping results associated with the dark-field images were visualized on a monitor with RAON computer software (NOST, Seoul, Korea), and the plasmon shift (Δλmax) of each LSPR wavelength was calculated using OriginPro 9 software.
Then, the LSPR peak shift of the Caov-3 cell line treated with bafilomycin A or not treated therewith was represented in the form of a cumulative bar graph, as shown in FIG. 13. Here, the regular and hatched boxes represent the measured first and second LSPR shifts, respectively, and error bars correspond to the standard errors measured in 60 immuno-AuNRs.

Setting [7] is: before the additional treatment (read as 50 nM Baf A alone).

Structures are written as SMILES.

In the case of `CO/C1=C\C(C)=C\[C@@H](C)[C@@H](O)[C@@H](C)C/C(C)=C/C=C/[C@H](OC)[C@@H]([C@@H](C)[C@@H](O)[C@H](C)[C@@]2(O)C[C@@H](O)[C@H](C)[C@@H](C(C)C)O2)OC1=O` [Baf A, bafilomycin A], the “cell viability over time” value in test [1] and in test [2] was “gradual cell death” throughout. Moreover, the “change of first-step LSPR Δλmax and LC3-II ratio” value in test [3] (50 nM Baf A, versus no Baf A) is “greater first-step LSPR Δλmax and an increased LC3-II ratio”; in test [4] (50 nM Baf A, versus no Baf A) it was “greater first-step LSPR Δλmax and an increased LC3-II ratio”. Moreover, the “LC3-II ratio (Equation 1)” value in test [3] (setting [7]) was found to be 68.1%. The “first-step LSPR Δλmax” value in test [3] (setting [7]) is on record as 7.23±0.33 nm; in test [4] (setting [7]), 10.40±0.35 nm. Besides, the “LC3 expression by Western blotting and ELISA” value in test [5] is given as “LC3-II accumulation was induced”. Further, the figures for the “LC3-II composition (Equation 1)” value in test [6] (Baf A for 20 minutes) and in test [6] (Baf A for 24 hours) were 6.78% and 78.8%, respectively. In addition, the “first LSPR peak shift” value in test [6] (Baf A for 24 hours) was found to be 10.2±0.25 nm. Moreover, the “second LSPR peak shift” value in test [6] (Baf A for 24 hours, after PEBP1) was 1.53±0.29 nm.
